The results in this text go back to patent US9981950B2, “Triazoles as NR2B receptor inhibitors” (Janssen Pharmaceuticals, Inc., priority 2014, dated 2018).

Assay [1] addresses T1, rat NR1/NR2B receptor (Rattus norvegicus (Rat), UniProt P35439+Q00960). Put plainly: RRNR2BB: inhibition of specific binding to the rat NR1/NR2B receptor. Particulars: [3H]-Ifenprodil binding, rat brain membranes, Hill-plot 2-parameter-model. The procedure, abridged: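 Washed membranes from male Wistar rat forebrain (whole brain minus cerebellum) in 5 mM Tris/1 mM EDTA pH 7.4 used in ifenprodil-site binding, 60 min at 4° C. Nonspecific binding defined with […] CP101.606; bound separated by filtration on PEI-soaked filters. IC50 from Hill plot, 2-parameter model.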

Assay [2] concerns the target T1, rat NR1/NR2B receptor. The assay is described as follows: NR2B binding assay: inhibition of specific [3H]-Ifenprodil binding to the rat NR1/NR2B receptor. Conditions: rat brain membranes, Hill-plot 2-parameter-model. How it is done:
Inhibition of Specific Binding to the Rat NR1/NR2B Receptor
Male Wistar rats (180 to 200 g) were killed by suffocation in a CO2 chamber for two minutes. Whole brains without cerebellum were removed and dissected on ice, placed into closed vials and stored at −70° C.
Membrane fractions were prepared and tested using standard techniques. At the time of the assay, 1 g of the brains was placed into 25 ml of 50 mM Tris/10 mM EDTA buffer, pH 7.1, (25 vol. per g of original tissue) and homogenized for 30 sec at 20000 rpm with an Ultraturrax T25 (Jahnke & Kunkel, IKA-Labortechnik, Staufen, Germany). The homogenate was centrifuged at 4° C. for 10 min at 48000 g (OPTIMA L-70, Beckman, Palo Alto, Calif. 94304, USA).
The supernatant was discarded and the pellet was homogenized on ice for 30 sec at 20000 rpm with an Ultraturrax and again centrifuged at 48000 g for 30 minutes at 4° C. The resulted pellet was resuspended in 25 ml of 50 mM Tris/10 mM EDTA buffer, homogenized for 30 sec with an Ultraturrax, aliquoted, frozen at −70° C. and stored until use.
After thawing on the day of the assay, a 5 ml membrane aliquot was centrifuged at 48000 g for 30 min at 4° C. The pellet was resuspended in 5 ml of 5 mM Tris/1 mM EDTA buffer, pH 7.4, homogenized for 30 sec at 20000 rpm with an Ultraturrax and centrifuged at 48000 g for 30 min at 4° C. This was repeated twice. The final pellet was homogenized in 5 ml of 5 mM Tris/l mM EDTA buffer at 4° C. with an Ultraturrax and used for the Ifenprodil-binding assay as described in the following.
Nonspecific binding was estimated in the presence of […] CP101.606. The samples were incubated for 60 min. at 4° C.
The incubation was terminated by filtration of the membrane preparations using Filtermat B (Pharmacia, Uppsala Sweden) and a Micro Cell Harvester (Skatron, Lier, Norway). The Filtermat B had been presoaked with 1% polyethylene imine and carefully washed with 50 mM Tris/HCl-buffer pH 7.7 after the filtration to separate free and bound radioactivity.
The optimal amount of membrane preparation in the assay had been determined and optimized for each membrane preparation separately before the test.
For pipetting of the incubation mixture we routinely used the robot Biomek2000 (Fa. Beckman).
For determination of IC50 values the Hill-plot, 2-parameter-model was used.

In the next assay the target is hERG-receptor (Homo sapiens (Human), UniProt Q12809). Put plainly: HERGBD: inhibition of specific 3H-Dofetilide binding to the hERG-receptor. Particulars: HEK cell membranes with human ERG, Hill-plot 2-parameter-model. The procedure, abridged:
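Membranes from HEK cells stably expressing human ERG incubated 90 min at RT with 1.5 nmol/l 3H-dofetilide in 20 mM HEPES/0.1 mM KCl pH 7.2, inhibitor in 1% DMSO. Nonspecific binding with […] dofetilide; bound ligand separated by filtration and scintillation counted.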
Background: hERG is a cardiac potassium channel; its block is linked to QT prolongation.

hERG-receptor, sequence (Q12809 whole entry): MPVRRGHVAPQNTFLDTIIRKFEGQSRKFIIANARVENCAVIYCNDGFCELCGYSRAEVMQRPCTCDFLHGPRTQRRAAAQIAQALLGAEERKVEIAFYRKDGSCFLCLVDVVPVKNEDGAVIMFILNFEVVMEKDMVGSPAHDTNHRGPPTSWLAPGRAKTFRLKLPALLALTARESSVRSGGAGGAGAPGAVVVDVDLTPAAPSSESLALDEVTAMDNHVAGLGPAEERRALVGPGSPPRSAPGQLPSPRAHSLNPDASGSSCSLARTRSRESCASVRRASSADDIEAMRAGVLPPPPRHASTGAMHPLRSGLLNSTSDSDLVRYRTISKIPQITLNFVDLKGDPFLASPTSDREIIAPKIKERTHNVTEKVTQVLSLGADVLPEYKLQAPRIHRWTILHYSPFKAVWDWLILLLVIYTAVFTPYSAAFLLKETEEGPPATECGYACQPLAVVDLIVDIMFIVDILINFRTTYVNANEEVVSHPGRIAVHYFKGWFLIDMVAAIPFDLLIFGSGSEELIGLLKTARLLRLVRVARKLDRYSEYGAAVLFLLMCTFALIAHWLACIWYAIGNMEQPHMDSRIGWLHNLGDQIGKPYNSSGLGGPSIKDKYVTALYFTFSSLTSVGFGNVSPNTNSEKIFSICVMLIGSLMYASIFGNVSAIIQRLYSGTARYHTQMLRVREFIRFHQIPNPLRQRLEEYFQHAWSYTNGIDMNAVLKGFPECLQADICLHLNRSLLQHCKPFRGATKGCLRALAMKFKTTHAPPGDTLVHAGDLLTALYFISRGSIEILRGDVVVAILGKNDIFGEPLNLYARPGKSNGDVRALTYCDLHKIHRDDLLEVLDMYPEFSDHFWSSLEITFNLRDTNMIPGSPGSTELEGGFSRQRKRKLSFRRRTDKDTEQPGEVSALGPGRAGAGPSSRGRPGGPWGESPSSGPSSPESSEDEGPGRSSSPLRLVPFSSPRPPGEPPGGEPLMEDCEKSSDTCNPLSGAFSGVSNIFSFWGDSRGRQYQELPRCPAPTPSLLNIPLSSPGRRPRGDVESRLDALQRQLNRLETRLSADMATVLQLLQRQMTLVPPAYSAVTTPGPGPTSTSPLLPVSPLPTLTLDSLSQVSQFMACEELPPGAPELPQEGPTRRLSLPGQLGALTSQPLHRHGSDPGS
T1 sequence (Q00960 27-1482, other chains not shown): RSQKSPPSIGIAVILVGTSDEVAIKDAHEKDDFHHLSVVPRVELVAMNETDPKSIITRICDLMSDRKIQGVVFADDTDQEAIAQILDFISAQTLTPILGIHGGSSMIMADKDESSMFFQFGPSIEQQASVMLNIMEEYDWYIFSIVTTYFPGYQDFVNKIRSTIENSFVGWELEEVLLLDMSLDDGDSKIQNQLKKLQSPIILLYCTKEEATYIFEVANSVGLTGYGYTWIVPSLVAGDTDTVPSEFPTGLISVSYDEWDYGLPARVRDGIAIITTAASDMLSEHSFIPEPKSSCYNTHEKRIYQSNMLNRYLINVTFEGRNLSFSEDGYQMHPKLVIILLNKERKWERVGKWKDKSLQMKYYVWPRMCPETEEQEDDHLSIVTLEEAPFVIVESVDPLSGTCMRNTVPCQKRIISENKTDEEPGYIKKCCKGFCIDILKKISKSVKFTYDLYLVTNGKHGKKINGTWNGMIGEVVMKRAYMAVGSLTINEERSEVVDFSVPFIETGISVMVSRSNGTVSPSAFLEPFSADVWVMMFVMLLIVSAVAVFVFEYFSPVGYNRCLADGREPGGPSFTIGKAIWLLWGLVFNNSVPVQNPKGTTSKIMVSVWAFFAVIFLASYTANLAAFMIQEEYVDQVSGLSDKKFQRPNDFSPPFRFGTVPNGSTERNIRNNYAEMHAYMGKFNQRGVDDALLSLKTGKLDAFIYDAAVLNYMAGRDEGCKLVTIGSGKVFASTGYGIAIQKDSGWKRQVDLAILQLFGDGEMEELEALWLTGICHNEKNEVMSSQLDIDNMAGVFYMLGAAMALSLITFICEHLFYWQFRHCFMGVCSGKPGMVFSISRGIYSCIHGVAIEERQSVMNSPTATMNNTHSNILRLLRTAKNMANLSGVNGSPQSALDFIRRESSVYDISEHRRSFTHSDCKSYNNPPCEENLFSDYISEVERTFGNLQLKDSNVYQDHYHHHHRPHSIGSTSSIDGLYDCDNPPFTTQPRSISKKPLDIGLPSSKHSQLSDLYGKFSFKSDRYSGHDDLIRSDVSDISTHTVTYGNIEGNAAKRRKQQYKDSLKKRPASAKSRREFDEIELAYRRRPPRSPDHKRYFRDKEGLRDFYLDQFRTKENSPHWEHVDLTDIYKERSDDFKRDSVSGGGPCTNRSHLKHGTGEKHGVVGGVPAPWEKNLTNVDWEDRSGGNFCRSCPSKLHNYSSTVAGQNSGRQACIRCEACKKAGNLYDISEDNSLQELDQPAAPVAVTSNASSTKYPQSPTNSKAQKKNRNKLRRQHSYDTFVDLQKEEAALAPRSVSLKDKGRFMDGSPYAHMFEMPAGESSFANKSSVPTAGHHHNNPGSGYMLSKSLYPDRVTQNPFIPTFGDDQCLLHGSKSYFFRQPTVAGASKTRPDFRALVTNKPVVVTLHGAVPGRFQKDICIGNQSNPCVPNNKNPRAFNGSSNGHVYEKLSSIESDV

On to `COc1cc(F)ccc1-n1cc(Cn2ccnc2C2CC2)nn1` [Example 62, 4-(2-Cyclopropyl-imidazol-1-ylmethyl)-1-(4-fluoro-2-methoxy-phenyl)-1H-[1,2,3]triazole], for which the IC50 on rat NR1/NR2B receptor [1] was 3.32 µM; at rat NR1/NR2B receptor [2], 3.32 µM; at hERG-receptor it was 45.9 µM.
Consider `Cc1ccc(-n2cc(Cn3ccnc3C3CC3)nn2)cc1F` [Example 63, 4-(2-Cyclopropyl-imidazol-1-ylmethyl)-1-(3-fluoro-4-methyl-phenyl)-1H-[1,2,3]triazole], for which the values for the IC50 at rat NR1/NR2B receptor [1], at rat NR1/NR2B receptor [2] and on hERG-receptor were 0.0871 µM, 0.0871 µM and 11.2 µM, respectively.
In the case of `FC(F)(F)c1cc(-n2cc(Cn3ccnc3C3CC3)nn2)ccc1Cl` [Example 66, 1-(4-Chloro-3-trifluoromethyl-phenyl)-4-(2-cyclopropyl-imidazol-1-ylmethyl)-1H-[1,2,3]triazole], the IC50 on rat NR1/NR2B receptor [1] amounted to 0.038 µM; at rat NR1/NR2B receptor [2], 0.038 µM; at hERG-receptor, 3.54 µM.
For the molecule `FC(F)(F)Oc1cccc(-n2cc(Cn3ccnc3C3CC3)nn2)c1` [Example 67, 4-(2-Cyclopropyl-imidazol-1-ylmethyl)-1-(3-trifluoromethoxy-phenyl)-1H-[1,2,3]triazole], the values for the IC50 on rat NR1/NR2B receptor [1], at rat NR1/NR2B receptor [2] and at hERG-receptor were 0.0345 µM, 0.0345 µM and 2.55 µM, respectively.
Consider `FC(F)(F)c1cccc(-n2cc(Cn3ccnc3C3CC3)nn2)c1` [Example 68, 4-(2-Cyclopropyl-imidazol-1-ylmethyl)-1-(3-trifluoromethyl-phenyl)-1H-[1,2,3]triazole], for which the IC50 at rat NR1/NR2B receptor [1] stood at 0.0916 µM; at rat NR1/NR2B receptor [2], 0.0916 µM; at hERG-receptor, 5.12 µM.
In the case of `FC(F)(F)c1ccc(-n2cc(Cn3ccnc3C3CC3)nn2)cc1` [Example 69, 4-(2-Cyclopropyl-imidazol-1-ylmethyl)-1-(4-trifluoromethyl-phenyl)-1H-[1,2,3]triazole], the results for the IC50 on rat NR1/NR2B receptor [1], on rat NR1/NR2B receptor [2] and on hERG-receptor were 0.173 µM, 0.173 µM and 4.41 µM, respectively.
Consider `CCc1nccn1Cc1cn(-c2ccc(Cl)c(C)c2)nn1` [Example 70, 1-(4-Chloro-3-methyl-phenyl)-4-(2-ethyl-imidazol-1-ylmethyl)-1H-[1,2,3]triazole], for which the IC50 at rat NR1/NR2B receptor [1] was 0.00184 µM; on rat NR1/NR2B receptor [2], 0.00184 µM; at hERG-receptor, 3.92 µM.
`Cc1cc(-n2cc(Cn3ccnc3C(C)C)nn2)ccc1Cl` [Example 71, 1-(4-Chloro-3-methyl-phenyl)-4-(2-isopropyl-imidazol-1-ylmethyl)-1H-[1,2,3]triazole]: the IC50 is 0.00447 µM at rat NR1/NR2B receptor [1], 0.00447 µM on rat NR1/NR2B receptor [2] and 10 µM at hERG-receptor.
Regarding `Cc1cc(-n2cc(Cn3ccnc3CCO)nn2)ccc1Cl` [Example 74, 1-(4-Chloro-3-methyl-phenyl)-4-[2-(2-hydroxy-ethyl)-imidazol-1-ylmethyl]-1H-[1,2,3]triazole], the IC50 at rat NR1/NR2B receptor [1] is 0.0069 µM; on rat NR1/NR2B receptor [2] it was 0.0069 µM; at hERG-receptor, 33.8 µM.
Consider `Cc1cc(-n2cc(Cn3ccnc3CCF)nn2)ccc1Cl` [Example 75, 1-(4-Chloro-3-methyl-phenyl)-4-[2-(2-fluoro-ethyl)-imidazol-1-ylmethyl]-1H-[1,2,3]triazole], for which the results for the IC50 on rat NR1/NR2B receptor [1], at rat NR1/NR2B receptor [2] and at hERG-receptor were 0.0135 µM, 0.0135 µM and 32.8 µM, respectively.
In the case of `Cc1nccn1Cc1cn(-c2cccc(C3CC3)c2)nn1` [Example 76, 1-(3-Cyclopropyl-phenyl)-4-(2-methyl-imidazol-1-ylmethyl)-1H-[1,2,3]triazole], the IC50 on rat NR1/NR2B receptor [1] amounted to 0.0159 µM; on rat NR1/NR2B receptor [2] it was 0.0159 µM; at hERG-receptor, 10.3 µM.
With `Cc1nccn1Cc1cn(-c2cccc(S(C)(=O)=O)c2)nn1` [Example 77, 1-(3-Methanesulfonyl-phenyl)-4-(2-methyl-imidazol-1-ylmethyl)-1H-[1,2,3]triazole], the IC50 at rat NR1/NR2B receptor [1] worked out at 0.615 µM; on rat NR1/NR2B receptor [2] it was 0.615 µM; on hERG-receptor it was 150 µM.
As for `CS(=O)(=O)c1cccc(-n2cc(Cn3ccnc3CCF)nn2)c1` [Example 80, 4-[2-(2-Fluoro-ethyl)-imidazol-1-ylmethyl]-1-(3-methanesulfonyl-phenyl)-1H-[1,2,3]triazole], the IC50 was 2.68 µM at rat NR1/NR2B receptor [1], 2.68 µM at rat NR1/NR2B receptor [2] and greater than 100 µM on hERG-receptor.
In the case of `CCc1nccn1Cc1cn(-c2ccc(F)c(C(F)F)c2)nn1` [Example 83, 1-(3-Difluoromethyl-4-fluoro-phenyl)-4-(2-ethyl-imidazol-1-ylmethyl)-1H-[1,2,3]triazole], the IC50 was 0.00411 µM at rat NR1/NR2B receptor [1], 0.00411 µM at rat NR1/NR2B receptor [2] and 16.7 µM at hERG-receptor.
In the case of `CC(C)(C)c1nccn1Cc1cn(-c2ccc(F)c(C(F)F)c2)nn1` [Example 87, 1-(3-Difluoromethyl-4-fluoro-phenyl)-4-(2-tert.butyl-imidazol-1-ylmethyl)-1H-[1,2,3]triazole], the half-maximal inhibitory concentration (IC50) came out at 0.131 µM on rat NR1/NR2B receptor [1], 0.131 µM on rat NR1/NR2B receptor [2] and 7.52 µM at hERG-receptor.
Turning to `OCCc1nccn1Cc1cn(-c2ccc(F)c(C(F)F)c2)nn1` [Example 88, 1-(3-Difluoromethyl-4-fluoro-phenyl)-4-[2-(2-hydroxy-ethyl)-imidazol-1-ylmethyl]-1H-[1,2,3]triazole], the IC50 on rat NR1/NR2B receptor [1] came out at 0.0145 µM; on rat NR1/NR2B receptor [2] it was 0.0145 µM; on hERG-receptor, 93.4 µM.
Consider `Cc1nccn1Cc1cn(-c2ccc(Cl)c(C(F)F)c2)nn1` [Example 89, 1-(4-Chloro-3-difluoromethyl-phenyl)-4-(2-methyl-imidazol-1-ylmethyl)-1H-[1,2,3]triazole], for which the IC50 turned out to be 0.00337 µM at rat NR1/NR2B receptor [1], 0.00337 µM on rat NR1/NR2B receptor [2] and 8.52 µM on hERG-receptor.
Regarding `FC(F)c1cc(-n2cc(Cn3ccnc3C3CC3)nn2)ccc1Cl` [Example 90, 1-(4-Chloro-3-difluoromethyl-phenyl)-4-(2-cyclopropyl-imidazol-1-ylmethyl)-1H-[1,2,3]triazole], the half-inhibitory concentration (IC50) at rat NR1/NR2B receptor [1] is 0.0154 µM; at rat NR1/NR2B receptor [2], 0.0154 µM; at hERG-receptor, 5.35 µM.
For `CCc1nccn1Cc1cn(-c2ccc(Cl)c(C(F)F)c2)nn1` [Example 91, 1-(4-Chloro-3-difluoromethyl-phenyl)-4-(2-ethyl-imidazol-1-ylmethyl)-1H-[1,2,3]triazole], the half-inhibitory concentration (IC50) at rat NR1/NR2B receptor [1] was determined as 0.00243 µM; on rat NR1/NR2B receptor [2], 0.00243 µM; at hERG-receptor, 7.19 µM.
Regarding `CC(C)c1nccn1Cc1cn(-c2ccc(Cl)c(C(F)F)c2)nn1` [Example 92, 1-(4-Chloro-3-difluoromethyl-phenyl)-4-(2-isopropyl-imidazol-1-ylmethyl)-1H-[1,2,3]triazole], the IC50 on rat NR1/NR2B receptor [1] was 0.00524 µM; on rat NR1/NR2B receptor [2], 0.00524 µM; at hERG-receptor, 11.3 µM.
Take `FC(F)Oc1cc(-n2cc(Cn3ccnc3C3CC3)nn2)ccc1Cl` [Example 94, 1-(4-Chloro-3-difluoromethoxy-phenyl)-4-(2-cyclopropyl-imidazol-1-ylmethyl)-1H-[1,2,3]triazole]: the figures for the IC50 at rat NR1/NR2B receptor [1], at rat NR1/NR2B receptor [2] and at hERG-receptor were 0.00391 µM, 0.00391 µM and 3.02 µM, respectively.
Take `CC(C)(C)c1nccn1Cc1cn(-c2ccc(Cl)c(OC(F)F)c2)nn1` [Example 95, 4-(2-tert-Butyl-imidazol-1-ylmethyl)-1-(4-chloro-3-difluoromethoxy-phenyl)-1H-[1,2,3]triazole]: the IC50 on rat NR1/NR2B receptor [1] was 0.0729 µM; on rat NR1/NR2B receptor [2] it was 0.0729 µM; at hERG-receptor it was 5.84 µM.
`CCc1nccn1Cc1cn(-c2ccc(Cl)c(OC(F)F)c2)nn1` [Example 96, 1-(4-Chloro-3-difluoromethoxy-phenyl)-4-(2-ethyl-imidazol-1-ylmethyl)-1H-[1,2,3]triazole]: the half-inhibitory concentration (IC50) at rat NR1/NR2B receptor [1] came out at 0.0016 µM; at rat NR1/NR2B receptor [2], 0.0016 µM; at hERG-receptor it was 4.41 µM.
On to `FCCc1nccn1Cc1cn(-c2ccc(Cl)c(OC(F)F)c2)nn1` [Example 99, 1-(4-Chloro-3-difluoromethoxy-phenyl)-4-[2-(2-fluoro-ethyl)-imidazol-1-ylmethyl]-1H-[1,2,3]triazole], for which the values for the half-inhibitory concentration (IC50) on rat NR1/NR2B receptor [1], on rat NR1/NR2B receptor [2] and on hERG-receptor were 0.00602 µM, 0.00602 µM and 23.8 µM, respectively.

One may read the IC50 as the concentration at which inhibition is half-maximal.
